Assay results as given in patent publication US5464796A, “7-isoindolinyl-quinolone-carboxylic acid derivatives” (Bayer Aktiengesellschaft, priority 1991, dated 1995).
Values after ≈ are worked out from the molar mass of the structure shown.

How the values were obtained:
Assay in all cases: MIC by series dilution on Iso-Sensitest agar
E. coli = assay type: cell-based, Escherichia coli; settings: 37° C., about 20 hours, 10^4 colony-forming particles per spot; for MIC: Escherichia coli, 20 h
Method: (§1) The minimum inhibitory concentrations (MIC) were determined by series dilution methods on Iso-Sensitest agar (Oxoid). A series of agar plates each containing active compound concentrations decreasing by twofold dilution each time were prepared for each test substance. The agar plates were inoculated with a Multipoint inoculator (Denley). Overnight cultures of the pathogens, which were first diluted so that each inoculum spot contained about 10^4 colony-forming particles, were used for the inoculation. The inoculated agar plates were incubated at 37° C. and the germ growth was read off after about 20 hours. The MIC value (μg/ml) indicates the lowest active compound concentration at which no growth was to be detected with the naked eye.
(§2) The MIC values of some of the compounds according to the invention are shown in the following table in comparison with 7-(4-amino-1,3-dihydro-isoindol-2-yl)-1-cyclopropyl-6,8-difluoro-1,4-dihydro-4-oxo-3-quinolinecarboxylic acid (EP 343,560, Example 2).

Klebsiella sp. = assay type: cell-based; settings: strain 8085, 37° C., about 20 hours, 10^4 colony-forming particles per spot; for MIC: Klebsiella
Method: as §1, §2

Morganella morg. = assay type: cell-based; settings: strain 932, 37° C., about 20 hours, 10^4 colony-forming particles per spot; for MIC: Morganella, 20 h
Method: as §1, §2

Providencia spp. = assay type: cell-based; settings: strain 12012, 37° C., about 20 hours, 10^4 colony-forming particles per spot; for MIC: Providencia, 20 h
Method: as §1, §2

Staphyloccus aureus = assay type: cell-based, Staphylococcus aureus; settings: 37° C., about 20 hours, 10^4 colony-forming particles per spot; for MIC: Staphylococcus aureus, 20 h
Method: as §1, §2

Enterocococus faecalis = assay type: cell-based, Enterococcus faecalis; settings: 37° C., about 20 hours, 10^4 colony-forming particles per spot; for MIC: Enterococcus faecalis, 20 h
Method: as §1, §2

Pseudomonas aeruginasa = assay type: cell-based, Pseudomonas aeruginosa; settings: strain Walter, 37° C., about 20 hours, 10^4 colony-forming particles per spot; for MIC: Pseudomonas, 20 h
Method: as §1, §2

Compound | MIC values (E. coli; strain 455/7) | MIC values (E. coli; strain Neumann) | MIC values (Klebsiella sp.) | MIC values (Morganella morg.) | MIC values (Providencia spp.) | MIC values (Staphyloccus aureus; strain 133) | MIC values (Staphyloccus aureus; strain 1756) | MIC values (Enterocococus faecalis; strain 9790) | MIC values (Enterocococus faecalis; strain 27101) | MIC values (Pseudomonas aeruginasa) [µg/mL] | MIC (E. coli; strain 455/7) [µg/mL] | MIC (E. coli; strain Neumann) [µg/mL] | MIC (Klebsiella sp.) [µg/mL] | MIC (Morganella morg.) [µg/mL] | MIC (Providencia spp.) [µg/mL] | MIC (Staphyloccus aureus; strain 133) [µg/mL] | MIC (Staphyloccus aureus; strain 1756) [µg/mL] | MIC (Enterocococus faecalis; strain 9790) [µg/mL] | MIC (Enterocococus faecalis; strain 27101) [µg/mL] | MIC (Pseudomonas aeruginasa) [µg/mL]
CNC1C=CCC2CN(c3c(F)cc4c(=O)c(C(=O)O)cn(C5CC5)c4c3Cl)CC21 (centres unmarked) [9 B] | 0,5 μg/ml | 0,02 μg/ml | 0,03 μg/ml | 0,06 μg/ml | 0,06 μg/ml | 0,03 μg/ml | 0,03 μg/ml | 0,02 μg/ml | 0,03 μg/ml | 1 (≈ 2.32 µM) |  |  |  |  |  |  |  |  |  | 
CNC1C=CCC2CN(c3nc4c(cc3F)c(=O)c(C(=O)O)cn4-c3ccc(F)cc3F)CC21 (centres unmarked) [11 B] |  |  |  |  |  |  |  |  |  |  | 16 (≈ 34 µM) | 0.25 (≈ 0.531 µM) | 0.5 (≈ 1.06 µM) | 0.5 (≈ 1.06 µM) | 0.5 (≈ 1.06 µM) | 0.06 (≈ 0.128 µM) | 0.06 (≈ 0.128 µM) | 0.25 (≈ 0.531 µM) | 0.25 (≈ 0.531 µM) | 8 (≈ 17 µM)
CNC1C=CCC2CN(c3c(F)cc4c(=O)c(C(=O)O)cn(C5CC5)c4c3F)CC21 (centres unmarked) [Example 1, 1-cyclopropyl-6,8-difluoro-1,4-dihydro-7-(4-methylamino-1,3,3a,4,7,7a-hexahydro-isoindol-2-yl)-4-oxo-3-quinolinecarboxylic acid] |  |  |  |  |  |  |  |  |  |  | 0.5 (≈ 1.2 µM) | 0.02 (≈ 0.0481 µM) | 0.06 (≈ 0.144 µM) | 0.06 (≈ 0.144 µM) | 0.06 (≈ 0.144 µM) | 0.02 (≈ 0.0481 µM) | 0.02 (≈ 0.0481 µM) | 0.03 (≈ 0.0722 µM) | 0.03 (≈ 0.0722 µM) | 1 (≈ 2.41 µM)
CNC1C=CCC2CN(c3cc4c(cc3F)c(=O)c(C(=O)O)cn4C3CC3)CC21 (centres unmarked) [Example 2] |  |  |  |  |  |  |  |  |  |  | 2 (≈ 5.03 µM) | 0.03 (≈ 0.0755 µM) |  |  | 0.13 (≈ 0.327 µM) | 0.02 (≈ 0.0503 µM) | 0.02 (≈ 0.0503 µM) | 0.06 (≈ 0.151 µM) | 0.06 (≈ 0.151 µM) | 2 (≈ 5.03 µM)
CNC1C=CCC2CN(c3c(F)cc4c(=O)c(C(=O)O)cn(C5CC5)c4c3Cl)CC21 (centres unmarked) [Example 3, 8-chloro-1-cyclopropyl-6-fluoro-1,4-dihydro-7-(4-methylamino-1,3,3a,4,7,7a-hexahydro-isoindol-2-yl)-4-oxo-3-quinolinecarboxylic acid] |  |  |  |  |  |  |  |  |  |  | 0.25 (≈ 0.579 µM) | 0.02 (≈ 0.0463 µM) | 0.03 (≈ 0.0695 µM) | 0.03 (≈ 0.0695 µM) | 0.03 (≈ 0.0695 µM) | 0.02 (≈ 0.0463 µM) | 0.02 (≈ 0.0463 µM) | 0.02 (≈ 0.0463 µM) | 0.02 (≈ 0.0463 µM) | 0.5 (≈ 1.16 µM)
CNC1C=CCC2CN(c3cc4c(c(C)c3F)c(=O)c(C(=O)O)cn4C3CC3)CC21 (centres unmarked) [Example 4] |  |  |  |  |  |  |  |  |  |  | 16 (≈ 38.9 µM) | 0.13 (≈ 0.316 µM) | 0.25 (≈ 0.608 µM) | 0.5 (≈ 1.22 µM) | 0.25 (≈ 0.608 µM) | 0.03 (≈ 0.0729 µM) | 0.03 (≈ 0.0729 µM) | 0.13 (≈ 0.316 µM) | 0.13 (≈ 0.316 µM) | 16 (≈ 38.9 µM)
CNC1C=CC(C)C2CN(c3cc4c(cc3F)c(=O)c(C(=O)O)cn4C3CC3)CC12 (centres unmarked) [Example 5] |  |  |  |  |  |  |  |  |  |  | 2 (≈ 4.86 µM) | 0.06 (≈ 0.146 µM) | 0.06 (≈ 0.146 µM) | 0.06 (≈ 0.146 µM) | 0.13 (≈ 0.316 µM) | 0.02 (≈ 0.0486 µM) | 0.02 (≈ 0.0486 µM) | 0.03 (≈ 0.0729 µM) | 0.03 (≈ 0.0729 µM) | 2 (≈ 4.86 µM)
CNC1C=CC(C)C2CN(c3c(F)cc4c(=O)c(C(=O)O)cn(C5CC5)c4c3F)CC12 (centres unmarked) [Example 6] |  |  |  |  |  |  |  |  |  |  | 1 (≈ 2.33 µM) | 0.03 (≈ 0.0699 µM) | 0.06 (≈ 0.14 µM) | 0.06 (≈ 0.14 µM) | 0.13 (≈ 0.303 µM) | 0.02 (≈ 0.0466 µM) | 0.02 (≈ 0.0466 µM) | 0.06 (≈ 0.14 µM) | 0.06 (≈ 0.14 µM) | 2 (≈ 4.66 µM)
CNC1C=CCC2CN(c3nc4c(cc3F)c(=O)c(C(=O)O)cn4C3CC3)CC21.Cl (centres unmarked) [Example 10, 1-cyclopropyl-6-fluoro-1,4-dihydro-7-(4-methylamino-1,3,3a,4,7,7a-hexahydroisoindol-2-yl)-4-oxo-1,8-naphthyridine-3-carboxylic acid hydrochloride] |  |  |  |  |  |  |  |  |  |  | 8 | 0.06 | 0.13 | 0.25 | 0.25 | 0.06 | 0.06 | 0.25 | 0.25 | 4
Nc1cccc2c1CN(c1c(F)cc3c(=O)c(C(=O)O)cn(C4CC4)c3c1F)C2 [Ref, 7-(4-amino-1,3-dihydro-isoindol-2-yl)-1-cyclopropyl-6,8-difluoro-1,4-dihydro-4-oxo-3-quinolinecarboxylic acid, reference compound] |  |  |  |  |  |  |  |  |  |  | 128 (≈ 322 µM) | 0.5 (≈ 1.26 µM) | 4 (≈ 10.1 µM) | 1 (≈ 2.52 µM) | 1 (≈ 2.52 µM) | 0.03 (≈ 0.0755 µM) | 0.03 (≈ 0.0755 µM) | 1 (≈ 2.52 µM) | 0.5 (≈ 1.26 µM) | 128 (≈ 322 µM)
